Measurements as given in paper PMC4634863, “A Putative Non-Canonical Ras-Like GTPase from P. falciparum: Chemical Properties and Characterization of the Protein” (PLoS ONE, 2015).

Molecular target: T1, PfG (Plasmodium falciparum, UniProt O77338)
T1 construct: gene PF3D7_0313500
T1 sequence (O77338 1-911): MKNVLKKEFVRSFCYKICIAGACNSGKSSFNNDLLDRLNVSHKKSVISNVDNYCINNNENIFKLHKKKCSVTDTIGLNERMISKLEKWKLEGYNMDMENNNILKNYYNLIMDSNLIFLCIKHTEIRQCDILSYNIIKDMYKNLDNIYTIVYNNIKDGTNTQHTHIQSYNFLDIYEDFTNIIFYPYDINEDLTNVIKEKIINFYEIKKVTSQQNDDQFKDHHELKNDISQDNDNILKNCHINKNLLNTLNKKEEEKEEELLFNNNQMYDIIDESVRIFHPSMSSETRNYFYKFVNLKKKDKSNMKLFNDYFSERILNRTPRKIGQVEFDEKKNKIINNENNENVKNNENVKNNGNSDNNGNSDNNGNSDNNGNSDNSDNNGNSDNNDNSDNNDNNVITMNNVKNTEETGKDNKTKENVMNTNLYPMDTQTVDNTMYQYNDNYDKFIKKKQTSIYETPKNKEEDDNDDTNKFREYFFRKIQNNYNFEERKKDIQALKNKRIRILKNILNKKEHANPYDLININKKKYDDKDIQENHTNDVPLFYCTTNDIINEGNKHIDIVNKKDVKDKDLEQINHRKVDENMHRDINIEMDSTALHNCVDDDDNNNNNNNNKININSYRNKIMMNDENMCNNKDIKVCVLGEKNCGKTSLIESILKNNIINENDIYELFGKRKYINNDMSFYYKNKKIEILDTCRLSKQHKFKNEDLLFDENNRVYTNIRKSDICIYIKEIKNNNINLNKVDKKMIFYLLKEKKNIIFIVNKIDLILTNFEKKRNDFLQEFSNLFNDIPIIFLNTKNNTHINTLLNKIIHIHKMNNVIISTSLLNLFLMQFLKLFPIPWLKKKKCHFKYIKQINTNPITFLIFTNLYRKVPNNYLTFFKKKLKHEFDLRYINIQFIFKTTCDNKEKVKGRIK
Experiment: fluorescence emission on binding, […] s time courses
Conditions: labelled compound; reversible nucleotide binding, unit printed as nmol (nM probably meant)

BODIPY® FL GTPγS
dissociation constant (Kd): 1.77 ± 0.36 nmol
